Where a SMILES comes first, the peptide text is derived from it. [ ]: non-standard residue; d: D form. pT = C[C@@H](OP(=O)(O)O)[C@H](N)C(=O)O; pS = N[C@@H](COP(=O)(O)O)C(=O)O
What follows are molecules tested against T1, 14-3-3η (Homo sapiens, UniProt Q04917) (assay: direct binding FP assay, 14-3-3η). Details: FITC-labeled peptide; FP buffer pH 7.4; 60 min room temperature; mean ± S.D., n = 3; values for 14-16 are estimated (Fig. S4); read-out: KD toward 14-3-3η (FP assay).
T1 construct: N-terminally His6-tagged 14-3-3 full-length proteins were expressed with heterologous bacterial expression; made in house
T1 sequence (Q04917 1-246): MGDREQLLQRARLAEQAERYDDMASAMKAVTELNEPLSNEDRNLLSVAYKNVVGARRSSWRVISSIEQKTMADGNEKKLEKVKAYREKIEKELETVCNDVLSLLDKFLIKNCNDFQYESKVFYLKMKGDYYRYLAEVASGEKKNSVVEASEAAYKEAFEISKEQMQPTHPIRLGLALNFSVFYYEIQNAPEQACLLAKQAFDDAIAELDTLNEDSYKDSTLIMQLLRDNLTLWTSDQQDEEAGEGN
Description: For the FP assay, the 14-3-3 proteins were diluted to a protein-specific start concentration in FP buffer (10 mM HEPES, pH 7.4, 150 mM NaCl, 2 mM DTT, 0.01% Tween 20). DMSO stocks of peptides were diluted in FP buffer to a concentration of 30 nM. For the assay, 10 μl of FP buffer were pipetted in 20 wells of a 384-well Corning black round bottom plate. A dilution series with 10 μl of protein solution was performed, and 5 μl of peptide solution was added to each well for a final volume of 15 μl. The plate was incubated for 60 min at room temperature. Measurement was performed at 25 °C in a Tecan Spark20M plate reader (λex = 470 nm, λem = 525 nm). Data analysis was performed with GraphPad Prism (version 5.03), and KD values were determined via a nonlinear regression fit of dose-response curves with variable slope (four parameters).

Molecule	Kd [µM]
CC(C)C[C@H](NC(=O)[C@@H](NC(=O)[C@@H](NC(=O)[C@H](C)NC(=O)[C@H](CO)NC(=O)[C@H](C)NC(=O)[C@@H]1CCCN1C(=O)[C@H](CC(N)=O)NC(=O)[C@@H](NC(=O)[C@@H](NC(=O)[C@H](C)NC(=O)[C@H](CO)NC(=O)[C@H](C)NC(=O)[C@H](CO)NC(=O)[C@@H]1CCCN1C(=O)[C@@H](NC(=O)[C@@H](NC(=O)[C@H](CO)NC(=O)[C@H](C)NC(=O)[C@@H](NC(=O)[C@@H]1CCCN1C(=O)[C@H](CO)NC(=O)[C@H](COP(=O)(O)O)NC(=O)[C@H](CC(N)=O)NC(=O)[C@H](C)NC(=O)[C@H](CC(N)=O)NC(=O)[C@H](CCCCN)NC(=O)[C@H](CC(N)=O)NC(=O)[C@H](CCCCN)NC(=O)[C@@H](N)CCC(=O)O)C(C)C)[C@@H](C)O)[C@@H](C)O)[C@@H](C)O)[C@@H](C)O)[C@@H](C)O)[C@@H](C)OP(=O)(O)O)C(=O)N[C@@H](CC(=O)O)C(=O)N[C@@H](CCC(N)=O)C(=O)N[C@@H](CO)C(=O)N[C@@H](CCCCN)C(=O)N[C@@H](C)C(=O)N[C@@H](Cc1c[nH]c2ccccc12)C(=O)N[C@@H](CC(N)=O)C(=O)N[C@@H](CCCNC(=N)N)C(=O)O [compound 12] (H-EKNKNAN[pS]SPVASTTPSASATTNPASAT[pT]LDQSKAWNR-OH)	0.18 ± 0.01
CC(C)C[C@H](NC(=O)[C@@H](NC(=O)[C@@H](NC(=O)[C@H](C)NC(=O)[C@H](COP(=O)(O)O)NC(=O)[C@H](C)NC(=O)[C@@H]1CCCN1C(=O)[C@H](CC(N)=O)NC(=O)[C@@H](NC(=O)[C@@H](NC(=O)[C@H](C)NC(=O)[C@H](CO)NC(=O)[C@H](C)NC(=O)[C@H](CO)NC(=O)[C@@H]1CCCN1C(=O)[C@@H](NC(=O)[C@@H](NC(=O)[C@H](CO)NC(=O)[C@H](C)NC(=O)[C@@H](NC(=O)[C@@H]1CCCN1C(=O)[C@H](CO)NC(=O)[C@H](COP(=O)(O)O)NC(=O)[C@H](CC(N)=O)NC(=O)[C@H](C)NC(=O)[C@H](CC(N)=O)NC(=O)[C@H](CCCCN)NC(=O)[C@H](CC(N)=O)NC(=O)[C@H](CCCCN)NC(=O)[C@@H](N)CCC(=O)O)C(C)C)[C@@H](C)O)[C@@H](C)O)[C@@H](C)O)[C@@H](C)O)[C@@H](C)O)[C@@H](C)O)C(=O)N[C@@H](CC(=O)O)C(=O)N[C@@H](CCC(N)=O)C(=O)N[C@@H](CO)C(=O)N[C@@H](CCCCN)C(=O)N[C@@H](C)C(=O)N[C@@H](Cc1c[nH]c2ccccc12)C(=O)N[C@@H](CC(N)=O)C(=O)N[C@@H](CCCNC(=N)N)C(=O)O [compound 10] (H-EKNKNAN[pS]SPVASTTPSASATTNPA[pS]ATTLDQSKAWNR-OH)	0.42 ± 0.03
CC(C)C[C@H](NC(=O)[C@@H](NC(=O)[C@@H](NC(=O)[C@H](C)NC(=O)[C@H](CO)NC(=O)[C@H](C)NC(=O)[C@@H]1CCCN1C(=O)[C@H](CC(N)=O)NC(=O)[C@@H](NC(=O)[C@@H](NC(=O)[C@H](C)NC(=O)[C@H](CO)NC(=O)[C@H](C)NC(=O)[C@H](CO)NC(=O)[C@@H]1CCCN1C(=O)[C@@H](NC(=O)[C@@H](NC(=O)[C@H](CO)NC(=O)[C@H](C)NC(=O)[C@@H](NC(=O)[C@@H]1CCCN1C(=O)[C@H](CO)NC(=O)[C@H](COP(=O)(O)O)NC(=O)[C@H](CC(N)=O)NC(=O)[C@H](C)NC(=O)[C@H](CC(N)=O)NC(=O)[C@H](CCCCN)NC(=O)[C@H](CC(N)=O)NC(=O)[C@H](CCCCN)NC(=O)[C@@H](N)CCC(=O)O)C(C)C)[C@@H](C)O)[C@@H](C)O)[C@@H](C)OP(=O)(O)O)[C@@H](C)O)[C@@H](C)O)[C@@H](C)O)C(=O)N[C@@H](CC(=O)O)C(=O)N[C@@H](CCC(N)=O)C(=O)N[C@@H](CO)C(=O)N[C@@H](CCCCN)C(=O)N[C@@H](C)C(=O)N[C@@H](Cc1c[nH]c2ccccc12)C(=O)N[C@@H](CC(N)=O)C(=O)N[C@@H](CCCNC(=N)N)C(=O)O [compound 8] (H-EKNKNAN[pS]SPVASTTPSASA[pT]TNPASATTLDQSKAWNR-OH)	18 ± 2.1

The remaining lines, values ahead:

Kd [µM]	Molecule
> 83	CC(C)C[C@H](NC(=O)[C@@H](NC(=O)[C@@H](NC(=O)[C@H](C)NC(=O)[C@H](CO)NC(=O)[C@H](C)NC(=O)[C@@H]1CCCN1C(=O)[C@H](CC(N)=O)NC(=O)[C@@H](NC(=O)[C@@H](NC(=O)[C@H](C)NC(=O)[C@H](CO)NC(=O)[C@H](C)NC(=O)[C@H](CO)NC(=O)[C@@H]1CCCN1C(=O)[C@@H](NC(=O)[C@@H](NC(=O)[C@H](CO)NC(=O)[C@H](C)NC(=O)[C@@H](NC(=O)[C@@H]1CCCN1C(=O)[C@H](CO)NC(=O)[C@H](COP(=O)(O)O)NC(=O)[C@H](CC(N)=O)NC(=O)[C@H](C)NC(=O)[C@H](CC(N)=O)NC(=O)[C@H](CCCCN)NC(=O)[C@H](CC(N)=O)NC(=O)[C@H](CCCCN)NC(=O)[C@@H](N)CCC(=O)O)C(C)C)[C@@H](C)O)[C@@H](C)O)[C@@H](C)O)[C@@H](C)O)[C@@H](C)O)[C@@H](C)O)C(=O)N[C@@H](CC(=O)O)C(=O)N[C@@H](CCC(N)=O)C(=O)N[C@@H](COP(=O)(O)O)C(=O)N[C@@H](CCCCN)C(=O)N[C@@H](C)C(=O)N[C@@H](Cc1c[nH]c2ccccc12)C(=O)N[C@@H](CC(N)=O)C(=O)N[C@@H](CCCNC(=N)N)C(=O)O [compound 13] (H-EKNKNAN[pS]SPVASTTPSASATTNPASATTLDQ[pS]KAWNR-OH; N-terminus assumed)
15 ± 1.5	CC(C)C[C@H](NC(=O)[C@@H](NC(=O)[C@@H](NC(=O)[C@H](C)NC(=O)[C@H](CO)NC(=O)[C@H](C)NC(=O)[C@@H]1CCCN1C(=O)[C@H](CC(N)=O)NC(=O)[C@@H](NC(=O)[C@@H](NC(=O)[C@H](C)NC(=O)[C@H](CO)NC(=O)[C@H](C)NC(=O)[C@H](CO)NC(=O)[C@@H]1CCCN1C(=O)[C@@H](NC(=O)[C@@H](NC(=O)[C@H](CO)NC(=O)[C@H](C)NC(=O)[C@@H](NC(=O)[C@@H]1CCCN1C(=O)[C@H](CO)NC(=O)[C@H](COP(=O)(O)O)NC(=O)[C@H](CC(N)=O)NC(=O)[C@H](C)NC(=O)[C@H](CC(N)=O)NC(=O)[C@H](CCCCN)NC(=O)[C@H](CC(N)=O)NC(=O)[C@H](CCCCN)NC(=O)[C@@H](N)CCC(=O)O)C(C)C)[C@@H](C)O)[C@@H](C)O)[C@@H](C)O)[C@@H](C)OP(=O)(O)O)[C@@H](C)O)[C@@H](C)O)C(=O)N[C@@H](CC(=O)O)C(=O)N[C@@H](CCC(N)=O)C(=O)N[C@@H](CO)C(=O)N[C@@H](CCCCN)C(=O)N[C@@H](C)C(=O)N[C@@H](Cc1c[nH]c2ccccc12)C(=O)N[C@@H](CC(N)=O)C(=O)N[C@@H](CCCNC(=N)N)C(=O)O [compound 9] (H-EKNKNAN[pS]SPVASTTPSASAT[pT]NPASATTLDQSKAWNR-OH)

The molecules below were run against T1, 14-3-3η (assay: isothermal titration calorimetry (ITC) with 14-3-3η). Details: 500 μM protein titrated to 50 μM peptide, 25 °C; Fig. S8.
Assay type: binding
Description: The ITC experiments were performed on an automated MicroCal iTC200 (Malvern Panalytical). To prepare 14-3-3 proteins for ITC measurements, a buffer exchange to ITC buffer (50 mM HEPES, pH 7.4, 250 mM NaCl, 20 mM MgCl2) was performed on a Superdex 75 10/300 GL column (ÄKTA Pure FPLC system, GE Healthcare). For peptides 1, 7, and 17, a 500 μM solution of protein was titrated to a 50 μM solution of peptide in 18 steps (2-μl volume in 4 s, 180-s spacing) at 25 °C. For peptide 11, a 250 μM solution of protein was titrated to a 12.5 μM solution of peptide with the settings mentioned before. The reference power was set to […], and the stirring speed was set to 750 rpm. Analysis was performed using MicroCal ITC-ORIGIN analysis software.

ITC result with 14-3-3η (in words)	Molecule
no heat change could be observed	17: APN 36–73 pThr^63 peptide [compound 17]
